# According to patent US11331299B2, “Medicinal use of serrulatane diterpenes” (The University of Sydney, priority 2016, dated 2022):
# Tests used:
# MLL2(h) complex = experiment: Epigenetic enzyme assay, Methyltransferases (MTs); format: biochemical, human; details: read-out: Reference IC50
# [1] = tested on: 43 cancer cell lines and one normal cell line; experiment: In vitro cell viability assay (intracellular ATP, 72 hour); format: cell-based; details: 10 μM
smiles,measurement,setting,value
Nc1ncnc2c1ncn2[C@@H]1O[C@H](CSCC[C@H](N)C(=O)O)[C@@H](O)[C@H]1O [SAH],IC50,MLL2(h) complex,24 µM
"CC(C)=CCC[C@H](C)[C@@H]1CC[C@@H](C)c2c1cc(C)c(O)c2O [Compound 4, 7,8-dihydroxyserrulat-14-ene]",reduction in cell viability,"[1]; Ramos, H33HJ-JA1, HL-60 (TB), MOLT-4, MV-411, SK-N-MC",−82 to −94%
same,% Cell growth,[1]; 4T1 (Breast Cancer),26%
same,% Cell growth,[1]; A375 (Skin),65%
same,% Cell growth,[1]; A549/ATCC (Non-Small Cell Lung Cancer),93%
same,% Cell growth,[1]; A-431 (Skin),107%
same,% Cell growth,[1]; A-498 (Kidney Cancer),89%
same,% Cell growth,[1]; ACHN (Kidney Cancer),105%
same,% Cell growth,[1]; B16-F0 (Melanoma),56%
same,% Cell growth,[1]; BT474 (Breast Cancer),64%
same,% Cell growth,[1]; CT26.WT (Colon Cancer),33%
same,% Cell growth,[1]; DLD-1 (Colon Cancer),68%
same,% Cell growth,[1]; H33HJ-JA1 (Lymphoma),−87%
same,% Cell growth,[1]; HC-4 (Liver Cancer),91%
same,% Cell growth,[1]; HCT-15 (Colon Cancer),69%
same,% Cell growth,[1]; HCT-116 (Colon Cancer),64%
same,% Cell growth,[1]; HT-29 (Colon Cancer),91%
same,% Cell growth,[1]; Hep3B (Liver Cancer),93%
same,% Cell growth,[1]; HepG2 (Liver Cancer),90%
same,% Cell growth,[1]; K-562 (Leukemia),60%
same,% Cell growth,[1]; KATO III (Stomach),83%
same,% Cell growth,[1]; LL/2 (Non-Small Cell Lung Cancer),98%
same,% Cell growth,[1]; LNCaP (Prostrate Cancer),56%
same,% Cell growth,[1]; MCF7 (Breast Cancer),77%
same,% Cell growth,[1]; MCF-7 AdrR (Breast Cancer),77%
same,% Cell growth,[1]; MDA-MB-231 (Breast Cancer),84%
same,% Cell growth,[1]; MDA-MB-468 (Breast Cancer),52%
same,% Cell growth,[1]; MES-SA (Uterus),68%
same,% Cell growth,[1]; MIA PaCa-2 (Pancreas),92%
same,% Cell growth,[1]; MOLT-4 (Leukemia),−93%
same,% Cell growth,[1]; MV-411 (Leukemia),−94%
same,% Cell growth,[1]; NCI-H460 (Non-Small Cell Lung Cancer),93%
same,% Cell growth,[1]; OVCAR-3 (Ovarian Cancer),60%
same,% Cell growth,[1]; PANC-1 (Pancreas),82%
same,% Cell growth,[1]; PC-6 (Non-Small Cell Lung Cancer),4%
same,% Cell growth,[1]; Ramos (Lymphoma),−82%
same,% Cell growth,[1]; SK-MEL-5 (Melanoma),88%
same,% Cell growth,[1]; SK-N-MC (Brain),−92%
same,% Cell growth,[1]; SK-OV-3 (Ovarian Cancer),74%
same,% Cell growth,[1]; SW-620 (Colon Cancer),74%
same,% Cell growth,[1]; T-47D (Breast Cancer),47%
same,% Cell growth,[1]; U937 (Lymphoma),20%
same,% Cell growth,[1]; U-87 MG (Brain),81%
